Source: US8435538B2, “Anti-atheroma vaccine” (Thrombosis Research Institute, priority 2008, dated 2013)
Several values for one entry are separate records, joined by “and”; a condition that tells them apart may be missing. Equal entries are not always repeated. Ends that are not written are not given here.

Tests used:
[1] = system: Apob^tm2SgyLdlr^tm1Her/J mice; assay: Histological analysis of atherosclerotic lesions in the aortic sinus of immunized mice; type: in vivo
Description: LDL receptor-deficient mice expressing ApoB-100 were immunized with a combination of two peptides derived from ApoB1 ([…], SEQ ID NO:25) and hHSP60 (AELKKQSKPVT, SEQ ID NO:26).
(§1) Apob^tm2SgyLdlr^tm1Her/J mice were immunized with combinations of ApoB and hHSP epitopes conjugated to keyhole limpet hemocyanin (KLH) as a carrier protein. The peptides were given either in combination, as a bi-specific immunogen, or in a single form, together with complete/incomplete Freund's adjuvant. Mice were fed with high-fat diet for 7 weeks then sacrificed. Peptide-specific antibody responses were detected in the sera by ELISA.
The lesions were 14.66% smaller following immunization with ApoB1 peptide alone (FIG. 5B), and 21.15% smaller after immunization with hHSP60 peptide alone (FIG. 5C) than in control mice.

hHSP60 peptide = assay: Peptide-specific antibody response in sera by ELISA after immunization with KLH conjugates, antigen hHSP60 peptide; type: in vivo, mice
Description: as §1

[2] = system: Apob^tm2Sgy Ldlr^tm1Her/J KO-mice; assay: RIMMS immunization, serum IgG titre by ELISA, KO-mouse model; type: in vivo; conditions: titre = highest serum dilution giving OD (450 nm) ≧1
Experimental: The ability of the recombinant immunogens to generate an immune response in BALB/C mice models, C57/BL6 mice models and Apob^tm2Sgy Ldlr^tm1Her/J KO-mice models. Mice were immunized using a repetitive, multiple site immunization strategy (RIMMS). Groups of 10 of 6-8-week-old BALB/c mice were inoculated with 4 μg of recombinant immunogen mixed with Freund's adjuvant 5 times respectively. The immunization was carried out subcutaneously into 8 sites on days 0, 2, 5, 7 and 9. On day 12 and 21 blood sample will be collected to test the antibody response. […]
Serum samples of immunized and naïve mice were tested for IgG antibodies using OD values at a dilution of 1:100 (or 200) on ELISA plates coated with antigens. Cut-off value for positivity was calculated as mean OD of naïve mouse sera+3×SD. Serum samples showing higher OD on antigen than on control antigen are considered positive, the other is determined by the highest dilution of serum giving an OD reading (at 450 nm)≧1. In this regard, titre can be assessed as non-immunoreactivity (<200), low immunoreactivity (200≦titre<800), good immunoreactivity (800≦titre<3200) and very good immunoreactivity ((titre 3200)

ApoB1 peptide = assay: Peptide-specific antibody response in sera by ELISA after immunization with KLH conjugates, antigen ApoB1 peptide; type: in vivo, mice
Description: as §1

[3] = system: macrophages (CD68+ cells); assay: Infiltration of macrophages into atherosclerotic lesions, anti-CD68 staining; type: in vivo; conditions: compared with mice immunized with either HSP60 or apoB1 alone; FIG. 6
Description: Infiltration of macrophages into atherosclerotic lesions in the Apob^tm2SgyLdlr^tm1Her/J mice were quantified by staining with anti-CD68. Sections of the tissue sample (5 μm thick) were stained with hematoxylin-eosin (H.E.) and examined under a light microscope. Macrophage levels were compared in a sample obtained from mice immunized with adjuvant only (control), mice immunized with ApoB only, mice immunized with hHSP60 only and mice immunized with the bi-specific ApoB1+hHSP60 immunogen.

“ApoB1 + hHSP60-KLH: combination of ApoB1 and hHSP60 peptides conjugated to KLH, bi-specific immunogen (chain 1 IEIGLEGKGFEPTLEALFGK; chain 2 AELKKQSKPVT; also: peptides conjugated to KLH; listed as Homo sapiens)” was tested, and the “protection from progression of atherosclerotic lesion” value ([1]; LDL receptor-deficient mice expressing ApoB-100) was “synergistic protection”, the “atherosclerotic lesions in the aortic sinus smaller in size than in control mice” value ([1]; vs adjuvant control, high-fat diet for 7 weeks) was 41.34% and the “OD at 1:100 serum dilution, ELISA antigen hHSP60 peptide, Mean” value (hHSP60 peptide; Week 8, group mean) was 1.366. For the same substance, the “OD at 1:100 serum dilution, ELISA antigen hHSP60 peptide” value (hHSP60 peptide; Week 8, individual mouse) was 1.368 and 1.405 and 1.556 and 1.282 and 1.215 and 1.338 and 1.396, the “Immune response on KO- mouse model” value [2] was “Very Good (very good immunoreactivity ((titre 3200))” and the “OD at 1:100 serum dilution, ELISA antigen ApoB1 peptide, Mean” value (ApoB1 peptide; Week 8, group mean) was 1.333. The “OD at 1:100 serum dilution, ELISA antigen ApoB1 peptide” value (ApoB1 peptide; Week 8, individual mouse) was 1.227 and 1.546 and 1.449 and 1.437 and 1.142 and 1.229 and 1.303 and the “number of macrophages (CD68+ cells) found within lesions of atherosclerosis” value [3] was “fewer”.
